# Data reported in patent US9144613B2, “Halogenated phenols for diagnostics, antioxidant protection and drug delivery” (priority 2012, dated 2015).
# Legend:
# [1] = Cleavage of the C—C bond during the oxidative dehalogenation reaction; assay type: physicochemical
# From the text: It has also been discovered that other types of bonds or linkages may also be cleaved by oxidative or free radical-mediated dehalogenation of the phenol ring. For example, as described herein, it has now been observed that a carbonyl linkage, a nitrogen linkage, a sulfinyl linkage and possibly a C—C bond on the phenol ring may also be cleaved by the oxidative dehalogenation reaction. These bonds are also considered stable, and their cleavage in connection with the dehalogenation reaction is surprising as well. One caveat with the C—C bond or linkage is that depending on the particular starting compound structure and the substituents or groups attached to the halogenated phenol ring via the C—C bond, the C—C bond or linkage may or may not be generally cleaved during or following the dehalogenation reaction (see below). […] However, other compounds do become cleaved. It is important to note that whether a C—C bond of a particular starting compound is “cleavable,” or becomes cleaved, may not be all-or-nothing (i.e., the C—C bond may be considered non-cleavable even though a small or minute amount of cleavage may occur, and vice versa). Thus, the amount or percentage of cleavage may be partial with the alternatively cleaved or non-cleaved product being possibly undetected or minute. […]
# [2] = Spontaneous dehalogenation and ether cleavage in buffered aqueous solution exposed to sunlight; assay type: physicochemical; details: about 1 mM in carbonate buffer (pH 8.0), exposed to sunlight for about one hour; clear yellow/orange solution formed
# From the text: In contrast to reductive deiodination, spontaneous dehalogenation (e.g., deiodination) of a halogentated phenol ring in the presence of an oxidizing agent(s) and/or free radical(s) with cleavage of a chemical linkage, such as an ether linkage, etc., between the phenol ring and a conjugated compound has not been described. According to the present invention, cleavage of the ether linkage between the aromatic rings of thyroid hormone may form visibly colored quinone and iodine-containing products in buffered aqueous solutions in vitro, and this ether cleavage reaction may be accelerated under basic pH conditions and with exposure to ionizing radiation or light. These conditions favor the increased formation of oxidizing agents and/or free radicals, which are believed to promote the reaction. […] A quinone and an iodotyrosine product are also formed by cleavage of the ether linkage during the reaction. According to embodiments of the present invention, a spontaneous reaction of dehalogenation and cleavage of a chemical bond is proposed for the targeted delivery and release of a drug compound at or to sites of inflammation or disease. This spontaneous reaction is further proposed as a basis for scavenging free radicals and/or oxidative agents (FROS) as well as for the creation of a detectable compound(s) that may be used for diagnostic purposes.
# spontaneous tumors = details: 10 mg by gavage; X-ray imaging about two hours after; mice showing spontaneous tumors; control images of same mice prior to treatment did not show foci
# From the text: As described above, oxidative foci or tumors may be identified by X-ray radiographic imaging of animals following administration of an indigogenic compound of the present invention. The radio-opaque indigo-like product formed and deposited with residence time in FROS-containing tumor tissues may then be detected.
# In this example, female C3H/HeN mice were obtained as multiparous retired breeders (i.e., after 3 to 4 litters) that were positive for a mammary tumor virus. See, e.g., Sellitti, D. F., Tseng, Y-C., and Latham, K. R., “Effect of 3,5,3′-Triiodo-L-thyronine on the Incidence and Growth Kinetics of Spontaneous Mammary Tumors in C3H/HeN Mice,” Cancer Research, 41: 5015-19 (1981), the entire contents and disclosure of which are incorporated herein by reference. Mice showing spontaneous tumors were given 10 mg of 5-Iodo-Indoxyl-3′,5′-Diiodo-4′-hydroxy ether substrate (product of Example 4) by gavage. These mice were then subjected to X-ray imaging of the tumors about two hours after being fed the iodo-indigogenic compound. […] When developed, the X-ray film appears dark in areas where more transmission occurs and light in areas where less transmission occurs.
# [3] = system: sites of the wound or injury; details: mice with small injuries or wounds (cuts, scratches); data not shown
smiles,measurement,setting,value
"N[C@@H](Cc1ccc(O)c(I)c1)C(=O)O [MIT, 3-iodo-4-hydroxy-L-phenylalanine]",cleavage of C—C bond with the dehalogenation reaction,[1],generally not to be cleaved
N[C@@H](Cc1cc(I)c(Oc2cc(I)c(O)c(I)c2)c(I)c1)C(=O)O [thyroxine],cleavage of ether linkage with release of iodide,[2],the ether linkage is broken spontaneously
"Oc1c(I)cc(Oc2c[nH]c3ccc(I)cc23)cc1I [Example 4, 5-Iodo-Indolyl-3′,5′-Diiodo-4′-hydroxyl-p-Phenol Ether]",radio-opaque tumor regions or foci by X-ray (formation and deposit of indigo-like product in oxidative tumor tissues),spontaneous tumors,radio-opaque tumor regions or foci
same,X-ray detection at sites of wound or injury,[3],strong detection was observed
